According to patent US11878956B2, “Metal salts and uses thereof” (Inspirna, Inc., priority 2019, dated 2024):
Where two headings read alike, the source gives them in different places.

Experiments:
[1] = cited from earlier work
[2] = cited from earlier work; remark: listed apart in the source
[3] = stability of salts of Compound 1 during processing and formulation; details: for stability of strong acid salts: readily undergo apparent esterification with alcoholic solvents; for stability towards excipients and/or components of a formulation: salts react with excipients and/or components of a formulation
2C19 = 2C19 (Homo sapiens, UniProt P33261); experiment: CYP inhibition in vitro; type: in vitro ADME
Sequence of 2C19 (P33261 whole entry): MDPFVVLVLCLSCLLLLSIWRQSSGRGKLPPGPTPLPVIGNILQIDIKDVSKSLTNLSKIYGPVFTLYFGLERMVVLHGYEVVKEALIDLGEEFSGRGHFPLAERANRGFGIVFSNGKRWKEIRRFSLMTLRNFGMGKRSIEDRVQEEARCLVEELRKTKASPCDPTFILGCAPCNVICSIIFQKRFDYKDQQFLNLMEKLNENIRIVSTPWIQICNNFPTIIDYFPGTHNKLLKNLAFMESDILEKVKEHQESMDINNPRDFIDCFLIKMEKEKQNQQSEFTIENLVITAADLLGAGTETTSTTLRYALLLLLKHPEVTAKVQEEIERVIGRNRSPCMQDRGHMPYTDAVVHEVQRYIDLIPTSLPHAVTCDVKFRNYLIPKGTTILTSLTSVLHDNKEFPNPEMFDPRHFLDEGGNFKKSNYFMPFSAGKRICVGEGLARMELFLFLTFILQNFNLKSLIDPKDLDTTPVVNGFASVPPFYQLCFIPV

[4] = clinical safety in subjects treated with Compound 1; type: in vivo
[5] = tested on: CYP2E1, CYP2C9, CYP2C19, and possibly CYP2J2; experiment: in vitro metabolism by CYP isoforms (other substrates); type: in vitro ADME
2A6 = molecular target: T1, 2A6 (Homo sapiens, UniProt P11509); experiment: CYP inhibition in vitro; type: in vitro ADME
T1 sequence (P11509 1-494): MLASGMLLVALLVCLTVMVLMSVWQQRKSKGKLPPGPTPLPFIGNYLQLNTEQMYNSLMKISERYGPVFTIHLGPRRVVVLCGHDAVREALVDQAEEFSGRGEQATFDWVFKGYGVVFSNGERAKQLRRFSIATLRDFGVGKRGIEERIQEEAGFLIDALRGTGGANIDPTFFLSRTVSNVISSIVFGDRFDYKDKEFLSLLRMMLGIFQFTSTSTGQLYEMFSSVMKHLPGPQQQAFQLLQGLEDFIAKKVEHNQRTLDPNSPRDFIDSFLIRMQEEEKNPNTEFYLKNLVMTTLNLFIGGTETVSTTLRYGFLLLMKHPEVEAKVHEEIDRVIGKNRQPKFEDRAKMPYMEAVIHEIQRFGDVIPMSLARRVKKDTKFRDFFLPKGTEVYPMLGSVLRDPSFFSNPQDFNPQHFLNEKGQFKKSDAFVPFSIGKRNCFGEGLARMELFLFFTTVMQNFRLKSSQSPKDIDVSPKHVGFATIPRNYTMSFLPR

[6] = initial solubility assessment in 12 solvents/solvent mixtures; type: physicochemical; details: amorphous Compound 1, 12 solvents/solvent mixtures
Method: An initial solubility assessment was conducted in 12 solvents/solvent mixtures using amorphous Compound 1. […] Salt screening by cooling, anti-solvent addition, maturation, liquid assisted grinding, neat grinding and evaporation were all investigated. Gums isolated were subjected to heat/cool maturation cycles (room temperature/50° C.), sonication, prolonged storage under vacuum, prolonged storage at 40° C./75% RH, trituration with anti-solvent and liquid assisted grinding (LAG) with water. From extensive salt screening, eight hits were obtained. Amorphous hits with a high glass transition temperature (Tg) were identified from zinc chloride, naphthalene-2-sulfonic acid, 1,5-naphthalene disulfonic acid, and ethane sulfonic acid. One crystalline hit was identified from ethane sulfonic acid. Poorly crystalline material was isolated from calcium hydroxide, magnesium hydroxide and aluminum hydroxide.

CYP3A [7] = experiment: CYP induction in cryopreserved hepatocytes; type: in vitro ADME; details: primary cultures of cryopreserved hepatocytes (2 donors)
CYP1A2 = experiment: CYP induction
[8] = oral PK in male Beagle dogs; type: in vivo
CYP2B6 = experiment: CYP induction in cryopreserved hepatocytes; type: in vitro ADME; details: 1 concentration in 1/3 donors
CYP3A [9] = experiment: CYP3A time-dependent inhibition in vitro; type: in vitro ADME; details: testosterone as the substrate
3A4 = 3A4 (Homo sapiens, UniProt P08684); experiment: CYP inhibition in vitro; type: in vitro ADME
Sequence of 3A4 (P08684 whole entry): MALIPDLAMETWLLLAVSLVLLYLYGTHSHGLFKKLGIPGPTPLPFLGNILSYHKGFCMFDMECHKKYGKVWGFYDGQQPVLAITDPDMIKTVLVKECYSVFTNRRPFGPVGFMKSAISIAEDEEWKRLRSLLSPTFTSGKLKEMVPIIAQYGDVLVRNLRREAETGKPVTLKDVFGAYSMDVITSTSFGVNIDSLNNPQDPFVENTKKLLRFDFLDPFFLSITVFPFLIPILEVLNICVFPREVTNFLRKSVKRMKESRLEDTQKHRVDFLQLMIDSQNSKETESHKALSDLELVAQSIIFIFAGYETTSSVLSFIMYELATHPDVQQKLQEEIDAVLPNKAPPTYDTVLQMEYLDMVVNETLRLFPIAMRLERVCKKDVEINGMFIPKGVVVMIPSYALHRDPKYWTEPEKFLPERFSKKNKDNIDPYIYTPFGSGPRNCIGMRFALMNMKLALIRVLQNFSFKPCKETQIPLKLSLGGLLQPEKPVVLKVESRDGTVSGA

[10] = animal / pre-clinical toxicology studies; type: in vivo
[11] = oral PK in Sprague-Dawley rats; type: in vivo
2C9 = 2C9 (Homo sapiens, UniProt P11712); experiment: CYP inhibition in vitro; type: in vitro ADME
Sequence of 2C9 (P11712 whole entry): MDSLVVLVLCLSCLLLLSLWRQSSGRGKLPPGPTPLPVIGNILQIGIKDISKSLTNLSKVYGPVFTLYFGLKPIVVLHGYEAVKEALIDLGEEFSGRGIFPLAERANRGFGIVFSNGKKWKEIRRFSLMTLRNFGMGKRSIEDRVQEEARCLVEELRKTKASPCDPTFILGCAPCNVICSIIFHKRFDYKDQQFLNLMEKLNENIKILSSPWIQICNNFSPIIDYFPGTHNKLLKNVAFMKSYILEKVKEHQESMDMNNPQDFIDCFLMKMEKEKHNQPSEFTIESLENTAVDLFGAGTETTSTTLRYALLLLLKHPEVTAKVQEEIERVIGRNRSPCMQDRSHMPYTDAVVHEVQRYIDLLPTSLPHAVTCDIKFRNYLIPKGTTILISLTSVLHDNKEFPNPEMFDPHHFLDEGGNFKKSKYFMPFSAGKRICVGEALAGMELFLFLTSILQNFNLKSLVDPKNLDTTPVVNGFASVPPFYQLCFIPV

oral PK in CD-1 mice = type: in vivo
[12] = tested on: melanoma, glioblastoma, TNBC, ovarian cancer, and lung cancer; experiment: syngeneic and human xenograft mouse tumor models, primary tumor growth; type: in vivo
[13] = oral PK in Cynomolgus monkeys; type: in vivo
endothelial recruitment = experiment: inhibition of endothelial recruitment in vitro; type: cell-based
[14] = molecular target: human ether-à-go-go-related gene (hERG) channel (Homo sapiens, UniProt Q12809); experiment: in vitro hERG assay; type: cell-based
Sequence of human ether-à-go-go-related gene (hERG) channel (Q12809 whole entry): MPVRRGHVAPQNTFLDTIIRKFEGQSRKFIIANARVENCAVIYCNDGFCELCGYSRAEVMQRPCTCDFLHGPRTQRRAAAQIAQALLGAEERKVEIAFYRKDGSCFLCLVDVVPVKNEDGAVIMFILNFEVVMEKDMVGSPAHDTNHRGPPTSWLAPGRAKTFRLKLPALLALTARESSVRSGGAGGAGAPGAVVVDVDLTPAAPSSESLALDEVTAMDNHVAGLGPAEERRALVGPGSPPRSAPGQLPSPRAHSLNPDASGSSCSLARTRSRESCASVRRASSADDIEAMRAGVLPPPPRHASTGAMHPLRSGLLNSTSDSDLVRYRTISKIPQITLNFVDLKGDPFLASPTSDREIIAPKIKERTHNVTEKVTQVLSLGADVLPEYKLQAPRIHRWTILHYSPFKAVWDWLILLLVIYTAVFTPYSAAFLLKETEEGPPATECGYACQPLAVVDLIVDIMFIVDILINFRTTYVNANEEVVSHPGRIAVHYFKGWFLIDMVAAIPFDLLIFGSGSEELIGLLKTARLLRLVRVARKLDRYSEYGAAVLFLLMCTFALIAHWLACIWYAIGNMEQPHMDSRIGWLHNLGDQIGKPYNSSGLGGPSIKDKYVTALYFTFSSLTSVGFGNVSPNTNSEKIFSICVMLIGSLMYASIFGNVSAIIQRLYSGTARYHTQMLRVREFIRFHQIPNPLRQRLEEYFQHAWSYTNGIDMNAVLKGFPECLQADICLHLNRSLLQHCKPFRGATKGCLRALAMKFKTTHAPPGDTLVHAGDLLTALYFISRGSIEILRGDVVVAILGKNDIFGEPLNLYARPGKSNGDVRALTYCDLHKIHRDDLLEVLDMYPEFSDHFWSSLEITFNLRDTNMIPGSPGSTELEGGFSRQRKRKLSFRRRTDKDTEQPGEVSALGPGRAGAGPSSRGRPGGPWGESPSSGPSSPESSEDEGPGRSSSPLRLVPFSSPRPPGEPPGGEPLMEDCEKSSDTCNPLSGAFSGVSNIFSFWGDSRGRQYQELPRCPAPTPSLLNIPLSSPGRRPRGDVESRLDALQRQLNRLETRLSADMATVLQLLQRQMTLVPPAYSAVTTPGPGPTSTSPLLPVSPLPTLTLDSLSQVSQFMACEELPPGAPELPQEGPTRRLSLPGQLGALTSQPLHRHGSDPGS

1A1 = molecular target: T2, 1A1 (Homo sapiens, UniProt P04798); experiment: CYP inhibition in vitro; type: in vitro ADME
T2 sequence (P04798 1-512): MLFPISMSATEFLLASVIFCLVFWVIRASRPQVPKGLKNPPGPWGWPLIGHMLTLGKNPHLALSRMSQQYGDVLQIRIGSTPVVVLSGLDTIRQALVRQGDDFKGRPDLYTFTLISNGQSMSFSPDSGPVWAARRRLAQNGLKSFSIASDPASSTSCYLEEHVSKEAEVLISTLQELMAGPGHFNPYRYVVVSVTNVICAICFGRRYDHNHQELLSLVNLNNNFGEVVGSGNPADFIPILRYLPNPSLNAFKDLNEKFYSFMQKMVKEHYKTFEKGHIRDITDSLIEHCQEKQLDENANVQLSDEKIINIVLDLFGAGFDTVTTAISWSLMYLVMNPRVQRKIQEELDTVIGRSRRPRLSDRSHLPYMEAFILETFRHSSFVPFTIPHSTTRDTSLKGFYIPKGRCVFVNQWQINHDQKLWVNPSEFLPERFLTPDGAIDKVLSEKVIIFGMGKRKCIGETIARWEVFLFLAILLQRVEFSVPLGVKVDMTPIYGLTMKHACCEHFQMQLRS

2E1 = 2E1 (Homo sapiens, UniProt P05181); experiment: CYP inhibition in vitro; type: in vitro ADME
Sequence of 2E1 (P05181 whole entry): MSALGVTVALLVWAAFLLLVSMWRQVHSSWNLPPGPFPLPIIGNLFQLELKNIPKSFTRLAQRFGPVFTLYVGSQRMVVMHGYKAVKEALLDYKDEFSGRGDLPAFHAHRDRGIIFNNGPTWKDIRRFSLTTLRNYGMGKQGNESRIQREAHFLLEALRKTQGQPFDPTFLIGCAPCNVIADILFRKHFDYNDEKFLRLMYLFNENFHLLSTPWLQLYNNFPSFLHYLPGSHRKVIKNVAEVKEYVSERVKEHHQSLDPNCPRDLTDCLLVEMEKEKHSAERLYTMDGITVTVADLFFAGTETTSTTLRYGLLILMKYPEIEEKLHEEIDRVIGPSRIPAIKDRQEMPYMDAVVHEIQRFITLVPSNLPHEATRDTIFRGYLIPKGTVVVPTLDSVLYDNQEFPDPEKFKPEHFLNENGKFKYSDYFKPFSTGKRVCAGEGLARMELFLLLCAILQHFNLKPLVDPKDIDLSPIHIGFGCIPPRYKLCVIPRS

[15] = neurobehavioral FOB and respiratory evaluations in rats; type: in vivo
ApoE [16] = experiment: ApoE gene expression induction in hPBMCs; type: cell-based, human
ApoE [17] = experiment: ApoE gene expression induction in cancer cells; type: cell-based
2D6 = 2D6 (Homo sapiens, UniProt P10635); experiment: CYP inhibition in vitro; type: in vitro ADME
Sequence of 2D6 (P10635 whole entry, canonical isoform): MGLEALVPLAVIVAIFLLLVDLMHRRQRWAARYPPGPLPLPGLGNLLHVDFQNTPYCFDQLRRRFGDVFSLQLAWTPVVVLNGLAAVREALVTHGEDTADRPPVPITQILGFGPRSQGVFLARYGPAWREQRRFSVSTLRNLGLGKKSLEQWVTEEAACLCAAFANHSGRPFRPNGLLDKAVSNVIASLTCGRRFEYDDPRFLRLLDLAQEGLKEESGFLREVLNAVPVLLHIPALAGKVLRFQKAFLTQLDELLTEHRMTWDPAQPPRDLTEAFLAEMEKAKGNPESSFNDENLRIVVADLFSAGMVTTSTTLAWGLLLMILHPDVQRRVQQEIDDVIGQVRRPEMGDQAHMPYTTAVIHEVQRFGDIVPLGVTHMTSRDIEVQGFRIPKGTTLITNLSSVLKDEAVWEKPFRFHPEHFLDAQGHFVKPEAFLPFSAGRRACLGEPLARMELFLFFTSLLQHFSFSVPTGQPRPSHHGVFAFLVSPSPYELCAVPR

CYP3A4 = CYP3A4 (Homo sapiens, UniProt P08684); experiment: in vitro metabolism by CYP isoforms; type: in vitro ADME
Sequence of CYP3A4 (P08684 whole entry, canonical isoform): as the sequence (P08684 whole entry) above

P-glucoprotein (P-gp) = P-glucoprotein (P-gp) (Homo sapiens, UniProt P08183); experiment: efflux transporter inhibition in vitro; type: in vitro ADME
Sequence of P-glucoprotein (P-gp) (P08183 whole entry): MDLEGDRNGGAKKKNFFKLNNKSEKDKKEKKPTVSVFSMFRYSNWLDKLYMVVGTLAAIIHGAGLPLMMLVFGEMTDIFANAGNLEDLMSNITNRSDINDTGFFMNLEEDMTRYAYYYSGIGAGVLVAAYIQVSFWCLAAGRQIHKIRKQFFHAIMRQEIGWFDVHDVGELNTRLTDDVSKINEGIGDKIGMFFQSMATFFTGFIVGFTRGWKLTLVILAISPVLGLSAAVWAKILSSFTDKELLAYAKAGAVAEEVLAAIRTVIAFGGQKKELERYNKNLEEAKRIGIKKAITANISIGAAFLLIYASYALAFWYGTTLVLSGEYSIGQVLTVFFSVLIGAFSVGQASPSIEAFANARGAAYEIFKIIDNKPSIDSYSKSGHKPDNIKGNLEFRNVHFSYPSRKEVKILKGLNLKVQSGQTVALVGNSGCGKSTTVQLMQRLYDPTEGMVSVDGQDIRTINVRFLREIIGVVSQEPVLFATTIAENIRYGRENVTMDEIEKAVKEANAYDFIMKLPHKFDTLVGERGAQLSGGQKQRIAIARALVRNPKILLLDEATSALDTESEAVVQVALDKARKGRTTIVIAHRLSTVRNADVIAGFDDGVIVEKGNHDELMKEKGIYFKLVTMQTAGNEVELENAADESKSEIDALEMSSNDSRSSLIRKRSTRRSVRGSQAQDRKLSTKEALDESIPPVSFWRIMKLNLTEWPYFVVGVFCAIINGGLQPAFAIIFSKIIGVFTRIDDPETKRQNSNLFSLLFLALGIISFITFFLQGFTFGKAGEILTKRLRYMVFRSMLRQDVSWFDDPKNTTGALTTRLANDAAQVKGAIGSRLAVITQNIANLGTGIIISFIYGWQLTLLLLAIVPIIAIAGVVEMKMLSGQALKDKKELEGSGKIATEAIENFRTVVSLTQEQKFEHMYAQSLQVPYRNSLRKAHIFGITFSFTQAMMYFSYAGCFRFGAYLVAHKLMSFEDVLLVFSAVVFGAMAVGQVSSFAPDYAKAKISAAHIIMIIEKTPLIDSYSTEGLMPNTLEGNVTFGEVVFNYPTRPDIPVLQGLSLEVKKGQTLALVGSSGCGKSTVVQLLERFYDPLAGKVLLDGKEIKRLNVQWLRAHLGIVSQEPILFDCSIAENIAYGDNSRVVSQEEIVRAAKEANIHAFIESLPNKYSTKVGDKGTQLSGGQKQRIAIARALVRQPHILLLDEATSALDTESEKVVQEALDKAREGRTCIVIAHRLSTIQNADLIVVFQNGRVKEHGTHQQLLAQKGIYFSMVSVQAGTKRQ

[18] = ECG and heart rate in dogs (safety pharmacology); type: in vivo
[19] = Table 5, counterion sources, first set Study 3
[20] = Table 6, counterion sources, second set Study 3

O=S(=O)(O)CCS(=O)(=O)O [Ethane-1,2-disulfonic acid]
pKa1 [1, 19]: −2.1

CCS(=O)(=O)O [Ethanesulfonic acid]
pKa1 [1, 19]: −1.6

OCCNCCO [Diethanolamine]
pKa1 [1, 19]: 9.5

N#CS [Thiocyanic acid]
pKa1 [1, 20]: −1.3

[NH2][Pt]1([NH2])[O]C(=O)C2(CCC2)C(=O)[O]1 [Carboplatin, platinum, diamine[1,1-cyclobutanedicarboxylato(2-)-O,O′]-(SP-4-2)]
pH of a 1% solution ([2]; 1% solution): 5-7 | solubility in ethanol, acetone, and dimethylacetamide ([2]; ethanol, acetone, dimethylacetamide): virtually insoluble | solubility in water ([2]; water): approximately 14 mg/mL

CS(=O)(=O)O [methanesulfonic acid]
stability of strong acid salts [3]: prone to instability | stability towards excipients and/or components of a formulation [3]: unstable

NCCCC[C@H](N)C(=O)O [L-Lysine]
pKa1 [1, 20]: 9.2

O=C(O)c1cc2ccccc2c(Cc2c(O)c(C(=O)O)cc3ccccc23)c1O [Pamoic acid]
pKa1 [1, 20]: 2.5

O=C(O)CNC(=O)c1ccccc1 [Hippuric acid]
pKa1 [1, 20]: 3.6

H2SO4 [Compound H2SO4]
stability of strong acid salts [3]: prone to instability | stability towards excipients and/or components of a formulation [3]: unstable

O=[N+]([O-])O [Nitric acid]
pKa1 [1, 19]: −1.3

N[C@@H](Cc1c[nH]cn1)C(=O)O [Histidine]
pKa1 [1, 20]: 9.2

OCCN1CCCC1 [1-(2-Hydroxyethyl)-pyrrolidine]
pKa1 [1, 20]: 9.4

O=S(=O)(O)c1ccc2ccccc2c1 [Naphthalene-2-sulfonic acid]
pKa1 [1, 19]: 0.17

C[N+](C)(C)CCO [Choline]
pKa1 [1, 19]: >11.0

N=C(N)NCCC[C@H](N)C(=O)O [L-Arginine]
pKa1 [1, 19]: 9.0

C[C@H](CCOc1cccc(CC(=O)O)c1)N(Cc1cccc(C(F)(F)F)c1Cl)CC(c1ccccc1)c1ccccc1 [Compound 1, 2-[3-[(3R)-3-[[2-chloro-3-(trifluoromethyl)phenyl]methyl-(2,2-diphenylethyl)amino]butoxy]phenyl]acetic acid]
inhibition of 2C19 (2C19): very weakly inhibited | dose limiting toxicity on single agent therapy ([4]; Compound 1 single agent therapy): DLT of Grade 4 neutropenia | hyperlipidemia in treated subjects ([4]; subjects treated with Compound 1): hyperlipidemia has been observed | substrate for other CYP isoforms [5]: also a substrate | inhibition of 2A6 (2A6): very weakly inhibited | solubility in solvents/solvent mixtures [6]: Dissolution was observed in most of the samples | induction of CYP3A (CYP3A [7]): Induction of CYP3A by Compound 1 was demonstrated | induction of CYP1A2 (CYP1A2): did not induce | mean apparent oral t % [8]: 5 to 6.7 h | induction of CYP2B6 (CYP2B6): > 2 fold | CYP3A time-dependent inhibition (TDI) (CYP3A [9]): time-dependent inhibition (TDI) was demonstrated | inhibition of 3A4 (3A4): very weakly inhibited | potential risks based on animal toxicology studies ([10]; animal toxicology studies): elevations in serum cholesterol and TG, neutropenia/leukopenia, nausea and/or vomiting, elevations in liver enzymes, development or worsening of cataracts, cardiac rhythm disturbances and/or reduced cardiac function, harderian gland adenocarcinoma, and/or generalized edema | liver function in pre-clinical toxicity studies ([10]; pre-clinical toxicity studies): Liver function abnormalities have been observed | mean apparent oral t % ([11]; female rats): 6.5 h | clearance, females versus males ([11]; rats): cleared at a lower rate in female rats compared to males | inhibition of 2C9 (2C9): very weakly inhibited | food effect: plasma concentrations fed state (oral PK in CD-1 mice): > 2 fold | exposures at minimum efficacious doses ([12]; 25-40 mg/kg/day PO): 10,000-50,000 ng-h/mL | minimum efficacious doses ([12]; administered orally (PO), tumor growth studies): 25 to 40 mg/kg/day | Mean oral t % [13]: 5.5 to 8 h | inhibition of endothelial recruitment (endothelial recruitment): ~50% | hERG channel conductance [14]: significant increase, but not inhibition | inhibition of 1A1 (1A1): very weakly inhibited | inhibition of 2E1 (2E1): very weakly inhibited | neurobehavioral FOB or respiratory evaluations [15]: no adverse effects | EC50 (ApoE [16]; Homo sapiens): 271 nM | induction of ApoE gene expression (ApoE [16]; compared to control cells): up to 40 fold | EC50 (ApoE [17]): 385 nM | induction of ApoE gene expression (ApoE [17]; compared to control cells): 3 fold | inhibition of 2D6 (2D6): very weakly inhibited | metabolism by CYP3A4 (CYP3A4): metabolized predominantly | inhibition of P-gp (P-glucoprotein (P-gp)): does not inhibit | effects on qualitative ECG parameters (PR or QTc intervals or QRS duration) [18]: no Compound 1-related effects | mean heart rate ([18]; Day 1 post-dose interval, significant in females at 150 (stepped down to 100) mg/kg/day): dose related decrease

O=S(=O)([O-])CCS(=O)(=O)[O-].[Na+].[Na+] [Sodium edisylate]
pKa1 [1, 20]: −2.1

O=S(=O)([O-])CCO.[Na+] [Sodium isethionate]
pKa1 [1, 20]: 1.7
